From patent US11179379B2, “Compositions and methods for hemoglobin production” (THE CHILDREN'S HOSPITAL OF PHILADELPHIA, priority 2017, dated 2021)

tested on: eIF2αK1; assay: not given; details: literature reports; cited from earlier work

Compound | inhibition of eIF2αK1 activity
C=CC1=C(C)c2cc3[n-]c(cc4[n-]c(cc5nc(cc1n2)C(C)=C5C=C)c(C)c4CCC(=O)O)c(CCC(=O)O)c3C.[Cl-].[Fe+3] [Fe(III)-hemin] | inhibit eIF2αK1 activity
O=c1c(O)c(-c2ccc(O)c(O)c2)oc2cc(O)cc(O)c12 [Quercetin] | ATP-competitive kinase inhibitor of eIF2αK1
uroporphyrin | inhibit eIF2αK1 activity
C=CC1=C(C)c2cc3[n-]c(cc4[n-]c(cc5nc(cc1n2)C(C)=C5C=C)c(C)c4CCC(=O)O)c(CCC(=O)O)c3C.[Fe+2] [Fe(II)-heme] | inhibit eIF2αK1 activity
C=CC1=C(C)/C(=C/C2=NC(=C\c3[nH]c(/C=C4\NC(=O)C(C)=C4C=C)c(C)c3CCC(=O)O)/C(CCC(=O)O)=C2C)NC1=O [biliverdin] | inhibit eIF2αK1 activity

tested on: HUDEP-2 expressing Cas9 cells; assay: Combination of eIF2αK1 gRNA and pomalidomide, HbF positive cells; assay type: cell-based, human; details: pomalidomide in combination with eIF2αK1 inhibition (eIF2αK1 gRNA #3 or #5); three independent experiments
Method: FIG. 3 is a graph of the percentage of cells positive for HbF expression. HUDEP-2 expressing Cas9 cells were transduced with eIF2αK1 sgRNA #3, eIF2αK1 sgRNA #5, a gRNA targeting BCL11A exon 2, or a negative control gRNA. Cells were then incubated with or without pomalidomide. n=3.
Combination experiments with the immunomodulatory pomalidomide, which is an HbF inducer, were also performed. If eIF2αK1 inhibition works at least in part by altering protein translation, additive effects may be observed when using compounds that predominantly affect transcription of fetal globin genes. Briefly, HUDEP-2 expressing Cas9 cells were transduced with eIF2αK1 gRNA #3, eIF2αK1 gRNA #5, a gRNA targeting BCL11A exon 2, or a negative control gRNA. The cells were then incubated with or without pomalidomide. […] Indeed, the results with pomalidomide in combination with eIF2αK1 inhibition were very strong in three independent experiments, even stronger than those observed with Bcl11A inhibition and pomalidomide.

Compound | number of HbF positive cells
Nc1cccc2c1C(=O)N(C1CCC(=O)NC1=O)C2=O (stereo not drawn) [pomalidomide] | greatly increased
